Source: patent US20220264878A1, “HERBICIDAL COMPOSITION CONTAINING R-TYPE PYRIDYLOXY CARBOXYLIC ACID DERIVATIVE AND USE THEREOF” (Qingdao Kingagroot Chemical Compound Co., Ltd., priority 2019, published 2022)
Like-named read-outs stand apart in the source and are kept apart here.

What was measured:
Type in all cases: in vivo
[1] = tested on: Alopecurus japonicus; test: Post-emergence foliage spray, pot culture, fresh weight inhibition (Tables 151-206; 20 days)
In short: (§1)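 Field-collected weeds grown in pots in a greenhouse (20-30° C., natural light, 57-72% RH), 15 per pot, 3 pots × 4 replicates. Single foliar spray at 4-5 leaves (grasses) or 5-6 leaves (broadleaf) with acetone/0.1% Tween-80 dilutions at 450 kg/ha, 0.3 MPa. Above-ground fresh weight inhibition versus solvent blank at 20 days.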

[2] = tested on: Conyza Canadensis; test: as above
In short: as §1

[3] = tested on: Digitaria sanguinalis; test: as above; conditions: Digitaria sanguinalis, 480 h, 20 days, read-out: Control effect (%) of A applied alone in corresponding dose; for pest or weed control at 75 g/ha: A 75 g a.i./ha; for pest or weed control at 150 g/ha: A 150 g a.i./ha
In short: as §1

[4] = tested on: Eleusine indica; test: as above
In short: as §1

[5] = tested on: Sinapis arvensis; test: as above
In short: as §1

[6] = tested on: Veronica didyma; test: as above
In short: as §1

[7] = tested on: Amaranthus retroflexus; test: as above
In short: (§2)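 Pre-germinated seeds (25° C soak 6 h, 28° C dark) grown in pots, thinned to 15 per pot; foliage-sprayed at 4~5-leaf (grasses) or 5~6-leaf (broadleaf) stage, 450 kg/ha spray volume, 0.3 MPa. Agents in acetone diluted with 0.1% Tween-80 water; solvent blank control. Above-ground fresh weight weighed, dead weeds scored zero.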

[8] = tested on: Capsella bursa-pastoris; test: as above; conditions: Capsella bursa-pastoris, 480 h, read-out: Control effect (%) of A applied alone in corresponding dose
In short: as §2

[9] = tested on: Solanum nigrum; test: Post-emergence foliage spray, pot culture, fresh weight inhibition (Tables 1-48, 51-98, 101-148; 24 days)
From the text: (§3) Table 1-48, 51-98, 101-148: Echinochloa crusgalli var. zelayensis, Eclipta prostrate, Galium aparine L., Alopecurus aequalis, Alopecurus japonicus, Lindernia procumbens, Veronica persica^1, Malachium aquaticum, Beckmannia syzigachne, Stellaria media were collected in Huai'an of Jiangsu Province; Commelina communis, Sonchus arvensis, Setaria glauca, Chloris virgata, Setaria faberi, Sonchus oleraceus L., Echinochloa oryzoides, Cirsium setosum, Xanthium strumarium were collected in Qiqiha'er of Heilongjiang Province; Sinapis arvensis, Veronica persica^2 were collected in Zhumadian of Henan Province; Ludwigia prostrate, Ammannia arenaria were collected in Zhuji of Zhejiang Province; Amaranthus retrojlexus, Descurainia sophia, Digitaria sanguinalis, Setaria viridis, Conyza Canadensis, Capsella bursa-pastoris, Eleusine indica, Ipomoea purpurea, Abutilon theophrasti, Chenopodium album, Acalypha australis, Solanum nigrum were collected in Qingdao of Shandong Province; Echinochloa caudate were collected in Pingluo of Ningxia Province.
(§4) The above weeds were cultivated by a pot culture method. […] Full and uniform weed seeds were selected, soaked in warm water at 25° C. for 6 hours, and germinated in a 28° C. biochemical incubator (darkness). The weed seeds that had just germinatedwere evenly placed on the surface of the soil and then covered with 0.5-1 cm soil according to the sizes of seeds.
(§5) The culture was carried out in a controllable sunlight greenhouse at 20 to 30° C., in natural light, and relative humidity of 57% to 72%.
(§6) The technical materials were all dissolved in acetone, and diluted with an aqueous solution containing 0.1% emulsifier Tween-80. The dilution is performed as required.
(§7) A ratio of the active ingredient A to the active ingredient B and amounts thereof in each group depends on the characteristics and toxicity of the two agents, as well as the main application purpose of a corresponding formulation. Based on the pre-tests in this study, the dosage of the active ingredient A and B applied alone and in combination were shown in the tables. Water containing the solvent and emulsifier same with the above groups but free of the agents was used as a blank control.
(§8) Table 1-48, 51-98, 101-148, 151-206: […] per treatment, that is, a total of 60 weeds were treated in one treatment.
(§9) Table 1-48, 51-98, 101-148: The agents were used for only once in the experiment. In the stage of weeds with 3˜4 leaves, the weeds were thinned out to maintain 15 weeds per pot and 45 weeds for each treatment, then continued to be cultured to 5˜6 leaves stage of grassy weeds, 6˜7 leaves stage of broadleaf weeds, and treated.
(§10) The well-cultured weeds were evenly placed on a platform with an area of 0.5 m^2, and a solution of agents was sprayed on the stems and leaves thereof by the 3WP-2000-type walking spray tower at a dosage of 450 kg/ha and at a spray pressure of 0.3 MPa. After all the solution was sprayed, the valve was closed. After 30 seconds, the door of the spray tower was opened, and the nutritional bowl was taken out. Then the valve was opened, and the spray tube was cleaned by spraying 50 ml of water.
(§11) A pot-culture method was employed. For the cultivation of weeds, please refer to the Section 1.1), and “Pesticide guidelines for laboratory bioactivity tests—herbicides”. As to a method for applying agents, please refer to the section 2.3.2), that is, a foliage treatment was employed. After the treatment, the weeds were routinely cultured in a greenhouse.
(§12) A method for investigating absolute number was employed, wherein whole seedlings of survival weeds were cut off with a blade along the soil surface, and the fresh weight of the weeds was weighed with an analytical balance. For dead weeds, the fresh weight thereof was zero.
(§13) Table 1-48, 51-98, 101-148, 207-216: The investigation was performed after 24 days of the treatment for only once.

[10] = tested on: Veronica persica^2 (collected in Zhumadian of Henan Province); test: as above
From the text: as §3, §4, §5, §6, §7, §8, §9, §10, §11, §12, §13

[11] = A alone 75 g a.i./ha, 20 days after treatment
[12] = A alone 150 g a.i./ha, 20 days after treatment

Compound: COC(=O)[C@@H](C)Oc1nc(F)c(Cl)c(N)c1Cl [Compound A67]
- Control effect (%) of A applied alone in corresponding dose ([1]; A 75 g a.i./ha, 20 days): 28.7%
- Control effect (%) of A applied alone in corresponding dose ([1]; A 150 g a.i./ha, 20 days): 52.4%
- Control effect (%) of A applied alone in corresponding dose ([2]; A 75 g a.i./ha, 20 days): 45.9%
- Control effect (%) of A applied alone in corresponding dose ([2]; A 150 g a.i./ha, 20 days): 65.6%
- pest or weed control at 75 g/ha [3]: 23.4%
- pest or weed control at 150 g/ha [3]: 62.2%
- Control effect (%) of A applied alone in corresponding dose ([4]; A 75 g a.i./ha, 20 days): 42.5%
- Control effect (%) of A applied alone in corresponding dose ([4]; A 150 g a.i./ha, 20 days): 75.3%
- Control effect (%) of A applied alone in corresponding dose ([5]; A 75 g a.i./ha, 20 days): 45.7%
- Control effect (%) of A applied alone in corresponding dose ([5]; A 150 g a.i./ha, 20 days): 72.8%
- Control effect (%) of A applied alone in corresponding dose ([6]; A 75 g a.i./ha, 20 days): 23.2%
- Control effect (%) of A applied alone in corresponding dose ([6]; A 150 g a.i./ha, 20 days): 43.1%
- Control effect (%) of A applied alone in corresponding dose ([7]; A 75 g a.i./ha, 20 days): 31.7%
- Control effect (%) of A applied alone in corresponding dose ([7]; A 150 g a.i./ha, 20 days): 63.9%
- pest or weed control at 75 g/ha ([8]; A 75 g a.i./ha, 20 days): 51.4%
- pest or weed control at 150 g/ha ([8]; A 150 g a.i./ha, 20 days): 75.6%

Compound: C[C@@H](Oc1nc(F)c(Cl)c(N)c1Cl)C(=O)OCc1ccco1 [Compound A163]
- Control effect (%) of A applied alone in corresponding dose [1, 11]: 24.1%
- Control effect (%) of A applied alone in corresponding dose [1, 12]: 44.0%
- Control effect (%) of A applied alone in corresponding dose [2, 11]: 39.0%
- Control effect (%) of A applied alone in corresponding dose [2, 12]: 55.8%
- pest or weed control at 75 g/ha [3]: 16.6%
- pest or weed control at 150 g/ha [3]: 45.4%
- Control effect (%) of A applied alone in corresponding dose [4, 11]: 31.7%
- Control effect (%) of A applied alone in corresponding dose [4, 12]: 56.0%
- Control effect (%) of A applied alone in corresponding dose [5, 11]: 29.6%
- Control effect (%) of A applied alone in corresponding dose [5, 12]: 47.2%
- Control effect (%) of A applied alone in corresponding dose [6, 11]: 18.6%
- Control effect (%) of A applied alone in corresponding dose [6, 12]: 34.5%
- Control effect (%) of A applied alone in corresponding dose [7, 11]: 26.6%
- Control effect (%) of A applied alone in corresponding dose [7, 12]: 53.7%
- pest or weed control at 75 g/ha [8, 11]: 41.1%
- pest or weed control at 150 g/ha [8, 12]: 60.5%

Compound: CCOC(=O)C(Cl)Cc1cc(-n2nc(C)n(C(F)F)c2=O)c(F)cc1Cl (stereo not drawn) [carfentrazone-ethyl]
- Control effect (%) of B applied alone in corresponding dose ([9]; B 1.875 g a.i./ha): 6.3%
- Control effect (%) of B applied alone in corresponding dose ([9]; B 3.75 g a.i./ha): 12.1%
- Control effect (%) of B applied alone in corresponding dose ([9]; B 7.5 g a.i./ha): 38.0%
- Control effect (%) of B applied alone in corresponding dose ([9]; B 15 g a.i./ha): 68.7%
- Control effect (%) of B applied alone in corresponding dose ([10]; Table 90, 1.875 g a.i./ha): 2.6%
- Control effect (%) of B applied alone in corresponding dose ([10]; Table 90, 3.75 g a.i./ha): 11.6%
- Control effect (%) of B applied alone in corresponding dose ([10]; Table 90, 7.5 g a.i./ha): 36.2%
- Control effect (%) of B applied alone in corresponding dose ([10]; Table 90, 15 g a.i./ha): 68.2%

Compound: O=C(Nc1ccc(F)cc1F)c1cccnc1Oc1cccc(C(F)(F)F)c1 [diflufenican]
- Control effect (%) of B applied alone in corresponding dose ([9]; B 15 g a.i./ha): 6.0%
- Control effect (%) of B applied alone in corresponding dose ([9]; B 30 g a.i./ha): 15.0%
- Control effect (%) of B applied alone in corresponding dose ([9]; B 60 g a.i./ha): 41.7%
- Control effect (%) of B applied alone in corresponding dose ([9]; B 120 g a.i./ha): 76.5%
- Control effect (%) of B applied alone in corresponding dose ([10]; Table 87, 15 g a.i./ha): 2.3%
- Control effect (%) of B applied alone in corresponding dose ([10]; Table 87, 30 g a.i./ha): 10.2%
- Control effect (%) of B applied alone in corresponding dose ([10]; Table 87, 60 g a.i./ha): 40.3%
- Control effect (%) of B applied alone in corresponding dose ([10]; Table 87, 120 g a.i./ha): 76.2%
